# Earlier results in patent US20100297147A1, “COMPOSITIONS AND METHODS FOR MODULATING TLR14 ACTIVITY” (WYETH, priority 2006, published 2010).
# Test system: postnatal day 4 rat cerebellar granule neurons
# Details: positive control, used at 10 uM
smiles,measurement,value
C[C@@H](N)[C@H]1CC[C@H](C(=O)Nc2ccncc2)CC1 [Y-27632],neurite outgrowth in the presence of myelin (known activity of control compound),known to induce neurite outgrowth in the presence of myelin
